Results from patent US10927075B2, “Compositions and methods relating to the treatment of cancer, autoimmune disease, and neurodegenerative disease” (THE JACKSON LABORATORY, priority 2014, dated 2021).

Key:
[1] = tested on: primary, AID expressing B-cells; test: Live cell imaging of nuclei fragmentation; assay type: cell-based, mice; conditions: 100 nM, individual cell imaged at 20 minute intervals
Method: FIG. 22 depicts live cell imaging of primary, AID expressing B-cells treated with 100 nM C-1523. Histone H2B-EGFP transgenic mice were used as a source of B-cells to facilitate imaging of chromatin. The top panel depicts an individual cell imaged at 20 minute intervals for 460 minutes. Images show chromosomal fragmentation commencing at 120 minutes. Data in the bottom panels depict quantification of live cell imaging depicting the fraction of cells that commence fragmentation at each time point (bottom left panel) and the cumulative fraction of fragmented nuclei (bottom right panel).
AID+/+ or AID−/− B-cells were cultured with 100 nM and cell cycle profiles were determined by propidium iodide staining and flow cyotmetry at intervals up to 96 hours. Non-activated (CD40) cells were used as a negative control; activated cells treated with the microtuble poison colcemid (ACT+colcemid) were used as a positive control. Nuclei fragmentation analysis of primary, AID expressing B-cells treated with 100 nM C-1523 was conducted (FIG. 22).

[2] = tested on: HEK293T cells; test: Sister chromatid exchange assay; assay type: cell-based, human; conditions: 100 nM, relative to DMSO vehicle
Description: C-1523 inhibits Sister Chromatid Exchange. […] To directly measure the effect of C-1523 on RAD51-mediated homologous recombination, we measured sister chromatid exchange and HR repair of an endonuclease generated DSB. Sister chromatid exchange (SCE) is a RAD51-mediated homologous recombination event between replicated sister chromatids in replicative or post-replicative cells, and reflects repair of replication-associated DNA damage. SCE can be measured following differential chromatid labeling by BrdU incorporation (Latt and Schreck, 1980). SCE is known to occur at a high rate in HEK293T cells, with approximately 0.25 spontaneously occurring exchange events per chromosome (FIGS. 14A, 14C) (Londono-Vallejo et al., 2004).
Propidium Iodide and flow cytometry.

[3] = tested on: B cells; test: Western Blot of apoptotic markers PARP-1 and caspase-9; assay type: cell-based
Method: (§1) Cell death mediated by C-1523 is p53-dependent. It was hypothesized that AID-dependent cytotoxicity induced by C-1523 would be associated with p53-mediated apoptosis. To test the importance of p53, a central regulator of cellular responses to DNA damage, viability was measured in mouse primary B-cells from Trp53+/+ versus Trp53−/− mice following exposure to C-1523. […] Caspase 3 activation, a marker of apoptotic cell death, was measured in C-1523 treated B-cells. B-cells were stained with an antibody that recognizes cleaved, activated caspase-3 (AC3) and the number of AC3-positive cells was measured via immunofluorescence microscopy. Following 10 Gy of ionizing irradiation Trp53+/+(WT), but not Trp53−/− cultures show a >30-fold increase in the percentage of AC3+ cells, confirming Trp53 dependent apoptosis in these cells after DNA damage. […] In order to more completely rule out apoptosis as the mode of cell death following C-1523 treatment in B cells, the expression of other common markers of apoptotic induction was examined via Western Blot.

[4] = target: RAD51 (Mus musculus, UniProt Q08297); test: RAD51 nucleocytoplasmic distribution by cell fractionation and Western blotting; assay type: cell-based; set-up: quantitation of RAD51 expression in nuclear and cytoplasmic fractions as determined by Western Blot; endogenous in cells
Chain of RAD51 (Q08297 whole entry): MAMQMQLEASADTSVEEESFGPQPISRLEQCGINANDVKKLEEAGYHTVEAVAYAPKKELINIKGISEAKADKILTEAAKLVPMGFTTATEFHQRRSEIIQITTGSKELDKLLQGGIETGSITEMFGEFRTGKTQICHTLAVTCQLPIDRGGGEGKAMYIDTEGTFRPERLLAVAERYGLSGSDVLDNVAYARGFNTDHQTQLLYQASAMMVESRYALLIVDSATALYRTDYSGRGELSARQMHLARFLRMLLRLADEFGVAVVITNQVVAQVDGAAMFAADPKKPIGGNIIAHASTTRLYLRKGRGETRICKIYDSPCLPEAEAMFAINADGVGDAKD
Method: It was next tested whether C-1523 would affect RAD51 localization or DNA damage-induced focus formation. Primary mouse B-cells were treated with 100 nM C-1523 (or vehicle control) and given either 0 or 2.5Gy ionizing irradiation. Following recovery in cell culture, cells were fixed and stained for immunofluorescence imaging to measure subcellular localization of RAD51. […] To confirm the effect of C-1523 on RAD51 subcellular localization, nucleocytoplasmic distribution was independently measured following C-1523 treatment by cell fractionation and Western blotting (FIG. 13D; Supplemental FIG. 2). […] This effect on subcellular localization was specific to RAD51, as localization of NF-kB, which undergoes nuclear translocation and homing to genomic target sites after cell stimulation, was unaffected by C-1523 exposure (FIGS. 13E-13F).

[5] = tested on: primary B-cells from Trp53−/− mice; test: Viability of activated primary B-cells; assay type: cell-based, mouse; conditions: 100 nM, 4-day activation
Method: as §1
Cell lines and cell culture. […] Immunofluorescence.

[6] = tested on: primary WT mouse splenic B cells; test: H2AX foci immunostaining in activated B-lymphocytes; assay type: cell-based; conditions: 100 nM
Method: FIG. 15A depicts an analysis of primary WT (AID+/+, closed markers) and AID−/− (open markers) murine B cell proliferation under activating conditions (αCD40 and IL-4 on days 0 and 2) and treated with the indicated doses of C-1523 for 4 days. Measurement of cell proliferation was determined by Trypan Blue staining and counting of viable, non-staining, cells via hemocytometer. Data are represented as the mean cell count for each condition. FIG. 15B depicts data from experiments in which primary B cells from A were stained with PI on day 4 and analyzed via flow cytometry for the percentage of cells that were non-viable, PI-positive (PI+). FIG. 15C depicts RT-PCR analysis of AID expression in cultured human cell lines. Water (H2O) and RNA from HEK293T cells were employed as negative controls for template and AID expression, respectively, and human activated B lymphocyte RNA (Stim B) was used as a positive control. GAPDH expression was included as a loading control. […] Viability was determined by Trypan Blue staining and counting via hemocytometer. […] FIG. 15F depicts quantitation of foci observed in AID−/− and WT cells represented in FIG. 15E. […]
To determine whether the cytotoxic effect of C-1523 in AID-expressing cells was associated with DNA damage overload, the accumulation of unrepaired AID-initiated DSBs was measured by H2AX immunoostaining, in activated mouse B-lymphocytes (FIGS. 15E, 15F). […]

[7] = tested on: MEC-1 cells; test: Micronuclei assay; assay type: cell-based, human; conditions: 100 nM for 3 days

For `CC(=O)Nc1ccc(/C=C/c2ccc(NC(=S)NC(C)C)cc2S(=O)(=O)O)c(S(=O)(=O)O)c1` [C-1523, (E)-5-acetamido-2-(4-(3-isopropylthioureido)-2-sulfonatostyryl)benzenesulfonate], the “time at which chromosomal fragmentation commences” value [1] was 120 min, the “median number of SCE events per chromosome” value [2] was “significantly reduced” and the “cleavage of PARP-1 or caspase-9” value ([3]; 2 days following activation) was “no cleavage of PARP-1 or caspase-9 was observed”. For the same compound, the “cleaved PARP-1 and caspase-9” value ([3]; 3 days) was “not due to C-1523 treatment specifically”, the “fraction of RAD51 localized to the nucleus, following irradiation” value [4] was “small, but measurable reduction” and the viability [5] was “did not show reduced viability”. For the same compound, the “fraction of cells with supernumerary foci (3-10 per cell)” value [6] was “significant increase”, the H2AX foci ([6]; αCD40 and IL-4) was “accumulation of H2AX foci” and the “micronuclei in treated cells versus vehicle” value [7] was “approximately 3.5 fold”.
